According to PubChem BioAssay AID256 (DTP/NCI, 2004):
“And” between values parts separate entries of the source, which are not always exact repeats. Identical values can stand only once. Toxic doses and inconclusive results are not listed.

Tested on: CD2F1 mice, L1210 leukemia ip, survival T/C
Assay: NCI In Vivo Anticancer Drug Screen. Data for tumor model L1210 Leukemia (intraperitoneal) in CD2F1 (CDF1) mice
Details: higher = longer survival
Summary of the method: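 Read-out first: treated-group measurement over vehicle-control measurement, expressed as a ratio. Animals bore a transplanted tumor line and were dosed with compound or vehicle.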

[1] = endpoint: mean survival time, dose: 25.0 mg/kg/injection, schedule: Q04DX003 (ip), vehicle: saline with Tween-80
[2] = endpoint: mean survival time, dose: 100.0 mg/kg/injection, schedule: Q01DX009 (ip), vehicle: saline with Tween-80
[3] = endpoint: mean survival time, dose: 400.0 mg/kg/injection, schedule: Q01DX009 (ip), vehicle: saline with Tween-80
[4] = endpoint: mean survival time, dose: 100.0 mg/kg/injection, schedule: Q04DX003 (ip), vehicle: saline with Tween-80

SMILES: CN1CCN(CN2C(=O)C3C4C=CC(C3C2=O)C2C3C(=O)N(CN5CCN(C)CC5)C(=O)C3C42)CC1 (centres undefined)
- T/C (endpoint: median survival time, dose: 7.2 mg/kg/injection, schedule: Q03HX027 (ip), vehicle: water): 106 % of control
- T/C (endpoint: median survival time, dose: 8.3 mg/kg/injection, schedule: Q03HX027 (ip), vehicle: water): 104 % of control
- T/C (endpoint: median survival time, dose: 12.0 mg/kg/injection, schedule: Q03HX027 (ip), vehicle: water): 114 % of control
- T/C (endpoint: median survival time, dose: 16.1 mg/kg/injection, schedule: Q01DX009 (ip), vehicle: water): 108 % of control
- T/C (endpoint: median survival time, dose: 24.8 mg/kg/injection, schedule: Q01DX009 (ip), vehicle: water): 102 % of control and 105 % of control and 109 % of control
- T/C (endpoint: median survival time, dose: 26.8 mg/kg/injection, schedule: Q01DX009 (ip), vehicle: water): 105 % of control
- T/C (endpoint: median survival time, dose: 33.4 mg/kg/injection, schedule: Q03HX027 (ip), vehicle: water): 172 % of control
- T/C (endpoint: median survival time, dose: 38.4 mg/kg/injection, schedule: Q03HX027 (ip), vehicle: water): 114 % of control
- T/C (endpoint: median survival time, dose: 41.3 mg/kg/injection, schedule: Q01DX009 (ip), vehicle: water): 124 % of control
- T/C (endpoint: median survival time, dose: 44.6 mg/kg/injection, schedule: Q01DX009 (ip), vehicle: water): 152 % of control
- T/C (endpoint: median survival time, dose: 55.7 mg/kg/injection, schedule: Q03HX027 (ip), vehicle: water): 103 % of control
- T/C (endpoint: median survival time, dose: 68.8 mg/kg/injection, schedule: Q01DX009 (ip), vehicle: water): 178 % of control and 183 % of control and 219 % of control
- T/C (endpoint: median survival time, dose: 74.4 mg/kg/injection, schedule: Q01DX009 (ip), vehicle: water): 255 % of control
- T/C (endpoint: median survival time, dose: 114.7 mg/kg/injection, schedule: Q01DX009 (ip), vehicle: water): 210 % of control and 243 % of control and 103 % of control

SMILES: O=C(COc1cccc(Cl)c1)NCc1ccccc1NC(=O)CBr
- T/C (endpoint: mean survival time, dose: 2.35 mg/kg/injection, schedule: Q01DX001 (ip), vehicle: saline with Tween-80): 101 % of control
- T/C (endpoint: mean survival time, dose: 4.7 mg/kg/injection, schedule: Q01DX001 (ip), vehicle: saline with Tween-80): 97 % of control
- T/C (endpoint: mean survival time, dose: 9.4 mg/kg/injection, schedule: Q01DX001 (ip), vehicle: saline with Tween-80): 92 % of control

SMILES: Cc1ccccc1S(=O)(=O)/C(=C(/I)c1ccccc1)c1ccccc1
- T/C (endpoint: mean survival time, dose: 50.0 mg/kg/injection, schedule: Q04DX003 (ip), vehicle: saline): 94 % of control
- T/C (endpoint: mean survival time, dose: 100.0 mg/kg/injection, schedule: Q04DX003 (ip), vehicle: saline): 102 % of control
- T/C (endpoint: mean survival time, dose: 200.0 mg/kg/injection, schedule: Q04DX003 (ip), vehicle: saline): 98 % of control

SMILES: CC12CCC3C(CC=C4CC(OC(=N)N)CCC43C)C1CCC2=O (centres undefined)
- T/C (endpoint: mean survival time, dose: 75.0 mg/kg/injection, schedule: Q01DX001 (ip), vehicle: saline): 98 % of control
- T/C (endpoint: mean survival time, dose: 150.0 mg/kg/injection, schedule: Q01DX001 (ip), vehicle: saline): 101 % of control

SMILES: CN1CCN(Cc2cn(C3CC(O)C(CO)O3)c(=O)[nH]c2=O)c2ccccc21 (centres undefined)
- T/C (endpoint: mean survival time, dose: 12.5 mg/kg/injection, schedule: Q01DX005 (ip), vehicle: distilled water + Tween-80): 93 % of control
- T/C (endpoint: mean survival time, dose: 25.0 mg/kg/injection, schedule: Q01DX005 (ip), vehicle: distilled water + Tween-80): 93 % of control
- T/C (endpoint: mean survival time, dose: 50.0 mg/kg/injection, schedule: Q01DX005 (ip), vehicle: distilled water + Tween-80): 93 % of control
- T/C (endpoint: mean survival time, dose: 100.0 mg/kg/injection, schedule: Q01DX005 (ip), vehicle: distilled water + Tween-80): 103 % of control
- T/C (endpoint: mean survival time, dose: 200.0 mg/kg/injection, schedule: Q01DX005 (ip), vehicle: distilled water + Tween-80): 93 % of control

SMILES: CC(C)(C)N[P+](Cc1ccccc1)(NC(C)(C)C)c1ccccc1
- T/C (endpoint: mean survival time, dose: 12.5 mg/kg/injection, schedule: Q04DX003 (ip), vehicle: saline with Tween-80): 90 % of control
- T/C [1]: 90 % of control

SMILES: COc1ccc(/C=N/NC(=O)CNC(=O)c2ccccc2)cc1
- T/C [2]: 92 % of control
- T/C [3]: 88 % of control

SMILES: COc1ccc2c(c1)CCC1=C2CCC2(C)C(=O)NC(=O)N12 (centres undefined)
- T/C [4]: 98 % of control
- T/C (endpoint: mean survival time, dose: 200.0 mg/kg/injection, schedule: Q04DX003 (ip), vehicle: saline with Tween-80): 96 % of control
- T/C (endpoint: mean survival time, dose: 400.0 mg/kg/injection, schedule: Q04DX003 (ip), vehicle: saline with Tween-80): 98 % of control

SMILES: CC(=O)CC(=O)Nc1cccc(Br)c1
- T/C [2]: 98 % of control
- T/C (endpoint: mean survival time, dose: 200.0 mg/kg/injection, schedule: Q01DX009 (ip), vehicle: saline with Tween-80): 101 % of control
- T/C [3]: 101 % of control

SMILES: CN(C)Cc1cc(C(C)(C)C)c(O)c(C(C)(C)C)c1
- T/C [1]: 112 % of control
- T/C (endpoint: mean survival time, dose: 50.0 mg/kg/injection, schedule: Q04DX003 (ip), vehicle: saline with Tween-80): 108 % of control
- T/C [4]: 100 % of control

SMILES: c1ccc(CCNCc2ccccn2)nc1
- T/C (endpoint: mean survival time, dose: 25.0 mg/kg/injection, schedule: Q04DX002 (ip), vehicle: saline): 96 % of control
- T/C (endpoint: mean survival time, dose: 50.0 mg/kg/injection, schedule: Q04DX002 (ip), vehicle: saline): 101 % of control
- T/C (endpoint: mean survival time, dose: 100.0 mg/kg/injection, schedule: Q01DX001 (ip), vehicle: saline): 94 % of control
- T/C (endpoint: mean survival time, dose: 100.0 mg/kg/injection, schedule: Q04DX002 (ip), vehicle: saline): 96 % of control
